These results are taken from ChEMBL document CHEMBL4393715, “Design, synthesis and biological evaluation of the thioether-containing lenalidomide analogs with anti-proliferative activities” (Eur J Med Chem, 2019).

As a reminder, the pIC50 is −log10 of the IC50, conventionally taken in molar units. As a reminder, the MRT inf is a mean duration of stay, worked out from the concentration-time curve. What is called Tmax is the time at which the peak concentration occurs. The AUC(0-inf) is total exposure, with the tail of the curve extrapolated. One may read the bioavailability as the share of a dose that reaches the circulation, judged against a reference dose that is usually intravenous. Broadly, the Cmax is the maximum level reached in the sampled fluid or tissue. Broadly, the clearance is the rate of elimination divided by the concentration.

pIC50: −log10 of the molar value.

A short description of data set [1]: Antiproliferative activity against human Mino cells measured after 72 hrs by CellTiter96 Aqueous non-radioactive cell proliferation assay. It is filed as functional, cell-based.
Data set [2] can be described thus: Toxicity in CB-17 SCID mouse xenografted with human RPMI8226 cells assessed as mortality at 60 mg/kg/day, po and measured after day 18. It is filed as organism-based. Particulars: in vivo. Background: Xenograft models place foreign cells or tissue in a host animal.
The nature of data set [3]: Toxicity in CB-17 SCID mouse xenografted with human RPMI8226 cells assessed as body weight at 60 mg/kg/day, po and measured after day 18 (reference value: 20.1 to 20.4 g). It is filed as organism-based. Particulars: in vivo.
Data set [4] in a line: MRT (infinity) in BALB/c mouse at 5 mg/kg, iv and measured up to 24 hrs by LC-MS/MS analysis. Type of data set: ADME, organism-based. Particulars: in vivo.
A further data set deals with MV4-11. In words: Antiproliferative activity against human MV411 cells measured after 168 hrs by CellTiter96 Aqueous non-radioactive cell proliferation assay. Particulars: MV4-11, 168 h. Type of data set: functional, cell-based.
The subject of data set [5] is RPMI-8226. Kind of data set: Antitumour activity against human RPMI8226 cells xenografted in CB-17 SCID mouse assessed as inhibition of tumour growth at 60 mg/kg/day, po measured twice a week for 21 days relative to control. Type of data set: functional. Further details: scale not given: the % may be the effect or the level left.
The nature of data set [6]: Tmax in BALB/c mouse at 20 mg/kg, po and measured up to 24 hrs by LC-MS/MS analysis. Particulars: in vivo. It is filed as ADME, organism-based.
Data set [7] is described as follows: AUC (infinity) in BALB/c mouse at 20 mg/kg, po and measured up to 24 hrs by LC-MS/MS analysis. Type of data set: ADME, organism-based. Also on record: dose 20 mg/kg, route oral, time infinity. Particulars: in vivo.
A short description of data set [8]: Half-life in BALB/c mouse at 5 mg/kg, iv and measured up to 24 hrs by LC-MS/MS analysis. Particulars: in vivo. Type of data set: ADME, organism-based.
The next data set concerns MM1.S. Kind of data set: Antiproliferative activity against human MM1S cells measured after 168 hrs by CellTiter96 Aqueous non-radioactive cell proliferation assay. Type of data set: functional, cell-based.
Data set [9] can be described thus: Oral bioavailability in BALB/c mouse at 20 mg/kg and measured up to 24 hrs by LC-MS/MS analysis. Particulars: in vivo. Type of data set: ADME, organism-based.
The subject of a further data set is U-266. Kind of data set: Antiproliferative activity against human U266 cells measured after 72 hrs by CellTiter96 Aqueous non-radioactive cell proliferation assay. It is filed as functional, cell-based. Particulars: U-266, 72 h.
The nature of data set [10]: Terminal elimination half life in BALB/c mouse at 20 mg/kg, po and measured up to 24 hrs by LC-MS/MS analysis. It is filed as ADME, organism-based. Particulars: in vivo, read-out: LambdaZ (converted).
The nature of data set [11]: Volume of distribution at steady state in BALB/c mouse at 5 mg/kg, iv and measured up to 24 hrs by LC-MS/MS analysis. It is filed as ADME, organism-based. Particulars: in vivo, read-out: Vdss.
In data set [12] the test system is RPMI-8226. Kind of data set: Antitumour activity against human RPMI8226 cells xenografted in CB-17 SCID mouse assessed as tumour volume at 60 mg/kg/day, po measured after day 18 (reference value: 153 to 154 mm3). Type of data set: functional.
Another data set relates to THP-1. In words: Antiproliferative activity against human THP1 cells measured after 168 hrs by CellTiter96 Aqueous non-radioactive cell proliferation assay. Type of data set: functional, cell-based. Particulars: THP-1, 168 h.
The test system of the next data set is Z-138. Kind of data set: Antiproliferative activity against human Z138 cells measured after 72 hrs by CellTiter96 Aqueous non-radioactive cell proliferation assay. It is filed as functional, cell-based. Particulars: Z-138, 72 h.
Data set [13] in a line: Cmax in BALB/c mouse at 20 mg/kg, po and measured up to 24 hrs by LC-MS/MS analysis. It is filed as ADME, organism-based. Further details: dose 20 mg/kg, route oral. Particulars: in vivo.
A further data set has as its system PBMC. In words: Cytotoxicity against human PBMC cells by CellTiter96 Aqueous non-radioactive cell proliferation assay. It is filed as cell-based.
The nature of data set [14]: Clearance in BALB/c mouse at 5 mg/kg, iv and measured up to 24 hrs by LC-MS/MS analysis. It is filed as ADME, organism-based. Particulars: in vivo.
Data set [15] deals with RPMI-8226. Kind of data set: Antitumour activity against human RPMI8226 cells xenografted in CB-17 SCID mouse assessed as relative tumour volume at 60 mg/kg/day, po measured twice a week for 21 days. Type of data set: functional.
Data set [16] is described as follows: AUC (infinity) in BALB/c mouse at 5 mg/kg, iv and measured up to 24 hrs by LC-MS/MS analysis. It is filed as ADME, organism-based. Particulars: in vivo. Also on record: dose 5 mg/kg, route intravenous, time infinity.
The next data set has as its system Kasumi 1. Kind of data set: Antiproliferative activity against human Kasumi-1 cells measured after 168 hrs by CellTiter96 Aqueous non-radioactive cell proliferation assay. It is filed as functional, cell-based. Particulars: Kasumi 1, 168 h.
Data set [17] has as its system RPMI-8226. In words: Antiproliferative activity against human RPMI8226 cells measured after 72 hrs by CellTiter96 Aqueous non-radioactive cell proliferation assay. It is filed as functional, cell-based. Particulars: RPMI-8226, 72 h.
Another data set concerns Raji. In words: Antiproliferative activity against human Raji cells measured after 168 hrs by CellTiter96 Aqueous non-radioactive cell proliferation assay. It is filed as functional, cell-based.
Data set [18] is described as follows: Toxicity in CB-17 SCID mouse xenografted with human RPMI8226 cells assessed as increase in body weight at 60 mg/kg/day, po and measured after day 18 (reference value: 13.4%). Type of data set: organism-based. Particulars: in vivo.
In another data set the test system is JeKo-1. Kind of data set: Antiproliferative activity against human JeKo1 cells measured after 72 hrs by CellTiter96 Aqueous non-radioactive cell proliferation assay. Type of data set: functional, cell-based. Particulars: JeKo-1, 72 h.

`O=C1CCC(N2Cc3c(SCc4ccc(Cl)cc4)cccc3C2=O)C(=O)N1` (stereo not given): the pIC50 in [1] was 8.64; with MV4-11, less than 4.70; in the data set with MM1.S, 8.96; with U-266, less than 4.70; in the data set with THP-1, less than 4.70; in the data set with Z-138, less than 4.70. Moreover, the pIC50 in the data set on PBMC is less than 4.70; with Kasumi 1, less than 4.70; in the data set with RPMI-8226 [17] it was 8.26; in the data set on Raji, less than 4.70; in the data set with JeKo-1, less than 4.70. The Activity result was “Non-Toxic” in data set [2]; 22.4 g in data set [3]; 52.31% in the data set on RPMI-8226 [5]; 1022 mm3 in the data set on RPMI-8226 [12]; 9.8% in [18]. For the same molecule, the MRT inf in data set [4] was determined as 56.4 min. The Tmax in data set [6] came out at 49.8 min. For the same molecule, the AUC(0-inf) in data set [7] was 755 ng·h/mL; in data set [16] it was 428 ng·h/mL. Moreover, the figures for the half-life in data set [8] and in data set [10] were 113 min and 107 min, respectively. In [9], this molecule had a bioavailability of 39.2%. In addition, in [11], the Vd was 11.1 L/kg. Also, in [13], the peak level (Cmax) was 283 ng/mL. In [14], this molecule returned a clearance of 196 mL/min/kg. In the data set on RPMI-8226 [15], the “fold change (FC)” value came out at 6.62.

Consider `O=C1CC[C@H](N2Cc3c(OCc4ccc(CN5CCOCC5)cc4)cccc3C2=O)C(=O)N1` [IBERDOMIDE], for which the pIC50 in data set [1] was 6.95; with MV4-11, less than 4.70; with MM1.S, 7.89. In addition, the Activity entry in data set [2] is “Non-Toxic”; in data set [3], 22.1 g; in the data set on RPMI-8226 [5], 27.07%; in the data set on RPMI-8226 [12], 517 mm3. In [4], this molecule yielded an MRT inf of 43.8 min. Moreover, the Tmax in [6] came to 8.4 min. In addition, the values for the AUC(0-inf) in [7] and in data set [16] were 1810 ng·h/mL and 1940 ng·h/mL, respectively. Also, the half-life is 58.2 min in [8] and 54 min in [10]. Also, the bioavailability in [9] came out at 22.8%. Also, in [11], the Vd came to 1.9 L/kg. The Cmax in [13] amounted to 2060 ng/mL. This molecule also came in with a clearance in [14] of 43.5 mL/min/kg. The “fold change (FC)” value with RPMI-8226 [15] was found to be 3.42.
